Source: US10441663B2, “Methods for treating cancer” (Bicycle Therapeutics Limited, priority 2016, dated 2019)
*1 amine or outer side, *2 acyl side, *3 side chain or, on linkers, in order; H or OH if unused. Where a SMILES comes first, the peptide text is derived from it. Bridges are numbered along the chain shown (N, C = ends). [ ]: non-standard residue; d: D form. The star is where a group is joined. X1 = COc1cc2cc(c1Cl)N(C)C(=O)C[C@H](OC(=O)[C@H](C)N(C)C(=O)CCSSC(C)CCC(=O)*)[C@]1(C)O[C@H]1[C@H](C)[C@@H]1C[C@@](O)(NC(=O)O1)[C@H](OC)/C=C/C=C(\C)C2; 1Nal = N[C@@H](Cc1cccc2ccccc12)C(=O)O; TBMB = c1c(C[*:1])cc(C[*:3])cc1C[*:2]; Tle = CC(C)(C)[C@H](N)C(=O)O; βAla = NCCC(=O)O; Sar = CNCC(=O)O

System: HCC1806 xenograft
Assay: In vivo efficacy of BT1718 in HCC1806 xenograft
Design: species or system Mus Musculus; key to Best response at 10 mg/kg: CR complete response; PR partial response
Method: The objective of this study was to evaluate the in vivo anti-tumor efficacy of BT1718in treatment of HT1080, NCI-H292, NCI-H1975, MDA-MB-231, HCC1806, RPMI2650, HCT-15, HT-29 and SNU-16 xenograft in BALB/c nude mice.
The HT1080, NCI-H292, NCI-H1975, MDA-MB-231, HCC1806, RPMI2650, HCT-15, HT-29 and SNU-16 tumor cells were maintained in vitro as a monolayer culture in medium supplemented with 10% heat inactivated fetal bovine serum at 37° C. in an […]. The tumor cells will be routinely subcultured twice weekly by trypsin-EDTA treatment. The cells growing in an exponential growth phase will be harvested and counted for tumor inoculation.
Mouse was inoculated subcutaneously at the right flank with tumor cells for tumor development. The animals were randomized and treatment was started when the average tumor reaches certain volume for the efficacy study, the inoculating cell amounts and starting tumor size were shown as below in Table 9. The test article administration and the animal numbers in each group were shown in the experimental design in Table 10.
All the procedures related to animal handling, care and the treatment in the study were performed according to the guidelines of the Association for Assessment and Accreditation of Laboratory Animal Care (AAALAC). At the time of routine monitoring, the animals were daily checked for any effects of tumor growth and treatments on normal behavior such as mobility, food and water consumption (by looking only), body weight gain/loss (body weights were measured every day), eye/hair matting and any other abnormal effect as stated in the protocol. Death and observed clinical signs were recorded on the basis of the numbers of animals within each subset.
The major endpoint was to see if the tumor growth could be delayed or mice could be cured. Tumor size was measured three times weekly in two dimensions using a caliper, and the volume was expressed in mm^3 using the formula: V=0.5 a×b^2 where a and b are the long and short diameters of the tumor, respectively. The tumor size was then used for calculations of T/C value. The T/C value (in percent) is an indication of antitumor effectiveness; T and C are the mean volumes of the treated and control groups, respectively, on a given day.
TGI was calculated for each group using the formula: TGI (%)=[1−(Ti−T0)/(Vi−V0)]×100; Ti is the average tumor volume of a treatment group on a given day, T0 is the average tumor volume of the treatment group on the day of treatment start, Vi is the average tumor volume of the vehicle control group on the same day with Ti, and V0 is the average tumor volume of the vehicle group on the day of treatment start.
Summary statistics, including mean and the standard error of the mean (SEM), are provided for the tumor volume of each group at each time point.
Statistical analysis of difference in tumor volume among the groups was conducted on the data obtained at the best therapeutic time point after the final dose.
A one-way ANOVA was performed to compare tumor volume among groups, and when a significant F-statistics (a ratio of treatment variance to the error variance) was obtained, comparisons between groups were carried out with Games-Howell test. All data were analyzed using Prism. P<0.05 was considered to be statistically significant.

Compound: COc1cc2cc(c1Cl)N(C)C(=O)C[C@H](OC(=O)[C@H](C)N(C)C(=O)CCSSC(C)CCC(=O)NCCC(=O)N(C)CC(=O)N(C)CC(=O)N(C)CC(=O)N(C)CC(=O)N(C)CC(=O)N(C)CC(=O)N(C)CC(=O)N(C)CC(=O)N(C)CC(=O)N(C)CC(=O)N[C@@H](C)C(=O)N[C@H]1CSCc3cc4cc(c3)CSC[C@H](NC(=O)[C@@H](C)NC(=O)[C@H](Cc3cccc5ccccc35)NC(=O)[C@H](CCC(=O)O)NC(=O)[C@H](CC(N)=O)NC(=O)[C@@H](C)NC1=O)C(=O)N[C@@H](CCC(=O)O)C(=O)N[C@@H](CC(=O)O)C(=O)N[C@@H](Cc1ccccc1)C(=O)N[C@@H](Cc1ccc(O)cc1)C(=O)N[C@@H](CC(=O)O)C(=O)N[C@@H](C(C)(C)C)C(=O)N[C@H](C(N)=O)CSC4)[C@]1(C)O[C@H]1[C@H](C)[C@@H]1C[C@@](O)(NC(=O)O1)[C@H](OC)/C=C/C=C(\C)C2 (stereo partly shown) [BT1718] ({X1-βAla}-[Sar][Sar][Sar][Sar][Sar][Sar][Sar][Sar][Sar][Sar]AC[dA]NE[1Nal][dA]CEDFYD[Tle]C-NH2; linker 12-18-25 via TBMB (inferred))
- Body Weight (1 mpk biw, day 0): 22.5 ± 0.7 g
- Tumor Volume (1 mpk biw, day 0): 188 ± 23 mm^3
- Body Weight (1 mpk biw, day 2): 22.8 ± 0.7 g
- Tumor Volume (1 mpk biw, day 2): 265 ± 53 mm^3
- Body Weight (1 mpk biw, day 4): 23.6 ± 0.6 g
- Tumor Volume (1 mpk biw, day 4): 428 ± 44 mm^3
- Body Weight (1 mpk biw, day 7): 24.2 ± 0.5 g
- Tumor Volume (1 mpk biw, day 7): 660 ± 85 mm^3
- Body Weight (1 mpk biw, day 9): 24.0 ± 0.5 g
- Tumor Volume (1 mpk biw, day 9): 793 ± 122 mm^3
- Body Weight (1 mpk biw, day 11): 24.3 ± 0.6 g
- Tumor Volume (1 mpk biw, day 11): 882 ± 118 mm^3
- Body Weight (1 mpk biw, day 14): 24.8 ± 0.4 g
- Tumor Volume (1 mpk biw, day 14): 1169 ± 137 mm^3
- re-growth during dosing suspension (2 months dosing suspension period): no re-growth
- Body Weight (3 mpk biw, day 0): 22.6 ± 1.0 g
- Tumor Volume (3 mpk biw, day 0): 190 ± 17 mm^3
- Body Weight (3 mpk biw, day 2): 23.2 ± 0.9 g
- Tumor Volume (3 mpk biw, day 2): 259 ± 34 mm^3
- Body Weight (3 mpk biw, day 4): 22.6 ± 1.0 g
- Tumor Volume (3 mpk biw, day 4): 296 ± 41 mm^3
- Body Weight (3 mpk biw, day 7): 22.8 ± 1.4 g
- Tumor Volume (3 mpk biw, day 7): 276 ± 77 mm^3
- Body Weight (3 mpk biw, day 9): 22.6 ± 1.6 g
- Tumor Volume (3 mpk biw, day 9): 323 ± 116 mm^3
- Body Weight (3 mpk biw, day 11): 23.2 ± 1.2 g
- Tumor Volume (3 mpk biw, day 11): 392 ± 126 mm^3
- Body Weight (3 mpk biw, day 14): 23.5 ± 1.1 g
- Tumor Volume (3 mpk biw, day 14): 527 ± 158 mm^3
- Body Weight (10 mpk biw, day 0): 23.1 ± 0.6 g
- Tumor Volume (10 mpk biw, day 0): 186 ± 30 mm^3
- Body Weight (10 mpk biw, day 2): 22.2 ± 1.1 g
- Tumor Volume (10 mpk biw, day 2): 221 ± 35 mm^3
- Body Weight (10 mpk biw, day 4): 23.2 ± 0.9 g
- Tumor Volume (10 mpk biw, day 4): 185 ± 20 mm^3
- Body Weight (10 mpk biw, day 7): 23.4 ± 0.8 g
- Tumor Volume (10 mpk biw, day 7): 142 ± 9 mm^3
- Body Weight (10 mpk biw, day 9): 22.9 ± 1.0 g
- Tumor Volume (10 mpk biw, day 9): 92 ± 2 mm^3
- Body Weight (10 mpk biw, day 11): 22.5 ± 1.2 g
- Tumor Volume (10 mpk biw, day 11): 84 ± 6 mm^3
- Body Weight (10 mpk biw, day 14): 23.8 ± 0.7 g
- Tumor Volume (10 mpk biw, day 14): 67 ± 11 mm^3
- TGI (HCC1806, 1 mpk, biw, day 14): 8.6%
- Tumor Volume (HCC1806, 1 mpk, biw, day 14): 1169 ± 137 mm^3
- TGI (HCC1806, 3 mpk, biw, day 14): 68.6%
- Tumor Volume (HCC1806, 3 mpk, biw, day 14): 527 ± 158 mm^3
- TGI (HCC1806, 10 mpk, biw, day 14): 111.1%
- Tumor Volume (HCC1806, 10 mpk, biw, day 14): 67 ± 11 mm^3
- Best response at 10 mg/kg (HCC-1806, 10 mg/kg): CR
- Minimally Effective Dose IV BIW (HCC-1806, dose leading to tumor-stasis): <10 mg/kg
- tumor volume after regression (after 2-3 weeks 10 mg/kg biw): below 50 mm3
